Laboratory results from BindingDB's records for doi:10.1016/0960-894X(96)00399-X (1996).

Biological target: Inositol 1,4,5-trisphosphate receptor type 1 (Rattus norvegicus)
Experiment: Compound was tested for inhibition of specific [3H]Ins(1,4,5)P3 binding to Inositol 1,4,5-trisphosphate receptor in rat cerebellar membranes.

Question: For `O=P(O)(O)OC1C(O)C(CO)C(OP(=O)(O)O)C(OP(=O)(O)O)C1O` [Phosphoric acid mono-((3S,5R,6R)-3,5-dihydroxy-2-hydroxymethyl-4,6-bis-phosphonooxy-cyclohexyl) ester], which IC50 is on record?
Answer: The IC50 was 0.027 µM.
